Test system: HCV genotype 1b replicon
Experiment: HCV replicon assay (HCV 1b_Huh-Luc/Neo-ET cell line, luciferase readout)
Assay type: cell-based
Conditions: Hepatitis C virus; bicistronic genotype 1b replicon in Huh 7 cells, 72 h incubation, luciferase enzyme activity; read-out: Inhibition of HCV genotype 1b
Procedure: Biological activity of the compounds of the invention was determined using an HCV replicon assay. The HCV 1b_Huh-Luc/Neo-ET cell line persistently expressing a bicistronic genotype 1b replicon in Huh 7 cells was obtained from ReBLikon GMBH. This cell line was used to test compound inhibition using luciferase enzyme activity readout as a measurement of compound inhibition of replicon levels.
On Day 1 (the day after plating cells), each compound is added in triplicate to the cells. Plates are incubated for 72 h prior to determining luciferase levels. Enzyme activity was measured using a Bright-Glo Kit (cat. number E2620) manufactured by Promega Corporation. The following equation was used to generate a percent control value for each compound.
% Control=(Average Compound Value/Average Control)*100
The EC50 value was determined using GraphPad Prism and the following equation:
Y=Bottom+(Top−Bottom)/(1+10̂((LogIC50−X)*HillSlope))
EC50 values of compounds are determined several times in the replicon assay. […]

SMILES | EC50
COC(=O)N[C@@H](C(=O)N1CCC[C@H]1c1ncc(-c2ccc(-c3ccc(C(=O)NC[C@@H]4CCCN4C(=O)[C@@H](c4ccccc4)N(C)C)cc3)cc2)[nH]1)c1ccccc1 [Compound 65] | < 1 nM
COC(=O)N[C@@H](C(=O)N1CCC[C@H]1CNC(=O)c1ccc(-c2ccc(-c3cnc([C@@H]4CCCN4C(=O)[C@@H](c4ccccc4)N4CCOCC4)[nH]3)cc2)cc1)c1ccccc1 [Compound 62] | < 1 nM
O=C(N[C@@H](C(=O)N1CCC[C@H]1C(=O)Nc1ccc(-c2ccc(-c3cnc([C@@H]4CCCN4C(=O)[C@H](NC(=O)C4CC4)c4ccccc4)[nH]3)cc2)cc1)c1ccccc1)C1CC1 [Compound 27] | < 1 nM
CC(C)[C@@H](NC(=O)C1CC1)C(=O)N1CCC[C@H]1C(=O)Nc1ccc(-c2ccc(-c3cnc([C@@H]4CCCN4C(=O)[C@H](NC(=O)C4CC4)C(C)C)[nH]3)cc2)cc1 [Compound 29] | 1 to 9.9 nM
C[C@@H](NC(=O)OC(C)(C)C)C(=O)N1CCOC[C@H]1C(=O)Nc1ccc(-c2ccc(-c3cnc([C@@H]4COCCN4C(=O)[C@@H](C)NC(=O)OC(C)(C)C)[nH]3)cc2)cc1 [Compound 17] | 10 to 999 nM
C[C@@H](NC(=O)C1CC1)C(=O)N1CCOC[C@H]1C(=O)Nc1ccc(-c2ccc(-c3cnc([C@@H]4COCCN4C(=O)[C@@H](C)NC(=O)C4CC4)[nH]3)cc2)cc1 [Compound 24] | 10 to 999 nM
COC(=O)N[C@H](C(=O)N1CCC[C@H]1c1ncc(-c2ccc(Sc3cccc(-c4cnc([C@@H]5CCCN5C(=O)[C@@H](NC(=O)OC)C(C)C)[nH]4)c3)cc2)[nH]1)C(C)C [Compound 69] | < 1 nM
COC(=O)N[C@H](C(=O)N1CCC[C@H]1CNC(=O)c1ccc(-c2ccc(-c3cnc([C@@H]4CCCN4C(=O)[C@@H](NC(=O)OC)C(C)C)[nH]3)cn2)cc1)C(C)C [Compound 78] | < 1 nM
CC(C)(C)OC(=O)N1CCOCC1C(=O)Nc1ccc(-c2ccc(-c3cnc([C@@H]4COCCN4C(=O)OC(C)(C)C)[nH]3)cc2)cc1 (some centres unmarked) [Compound 4] | > 1000 nM
O=C(N[C@@H](C(=O)N1CCOC[C@H]1C(=O)Nc1ccc(-c2ccc(-c3cnc([C@@H]4CCCN4C(=O)[C@H](NC(=O)C4CC4)c4ccccc4)[nH]3)cc2)cc1)c1ccccc1)C1CC1 [Compound 3] | < 1 nM
COC(=O)N[C@H](C(=O)N[C@@H](C)c1ncc(-c2ccc(-c3ccc(C(=O)NC[C@@H]4CCCN4C(=O)[C@@H](NC(=O)OC)C(C)C)nc3)cc2)[nH]1)C(C)C [Compound 92] | 1 to 9.9 nM
COC(=O)N[C@H](C(=O)N1CCC[C@H]1CNC(=O)c1ccc(-c2ccc3c(c2)CCc2nc([C@@H]4CCCN4C(=O)[C@@H](NC(=O)OC)C(C)C)[nH]c2-3)cc1)C(C)C [Compound 84] | < 1 nM
COC(=O)N[C@H](C(=O)N1CCC[C@H]1CNC(=O)c1ccc(-c2ccc3c(ccc4nc([C@@H]5CCCN5C(=O)[C@@H](NC(=O)OC)C(C)C)[nH]c43)c2)cc1)C(C)C [Compound 113] | < 1 nM
CC(C)(C)OC(=O)N[C@@H](C(=O)N1CCC[C@H]1c1ncc(-c2ccc(Oc3ccc(-c4cnc([C@@H]5CCCN5C(=O)[C@H](NC(=O)OC(C)(C)C)c5ccccc5)[nH]4)cc3)cc2)[nH]1)c1ccccc1 [Compound 52] | < 1 nM
COC(=O)N[C@H](C(=O)N1CCC[C@H]1C(=O)N[C@@H](C)c1ccc(-c2ccc(-c3cnc([C@@H]4CCCN4C(=O)[C@@H](NC(=O)OC)[C@@H](C)OC)[nH]3)cc2)cc1)[C@@H](C)OC [Compound 100] | < 1 nM
COC(=O)N[C@H](C(=O)N1CCC[C@H]1CNC(=O)c1ccc(-c2ccc(-c3cnc([C@@H]4CCCN4C(=O)[C@@H](NC(=O)OC)C(C)C)[nH]3)nc2)cc1)C(C)C [Compound 90] | 1 to 9.9 nM
COC(=O)N[C@H](C(=O)N1CCC[C@H]1c1ncc(-c2ccc(Oc3cccc(-c4cnc([C@@H]5CCCN5C(=O)[C@@H](NC(=O)OC)C(C)C)[nH]4)c3)cc2)[nH]1)C(C)C [Compound 70] | < 1 nM
O=C(NC[C@@H]1CCCN1C(=O)[C@H](NC(=O)C1CC1)c1ccccc1)c1ccc(-c2ccc(-c3cnc([C@@H]4CCCN4C(=O)[C@H](NC(=O)C4CC4)c4ccccc4)[nH]3)cc2)cc1 [Compound 55] | < 1 nM
CC(C)(C)OC(=O)N[C@@H](C(=O)N1CCC[C@H]1COc1ccc(-c2ccc(-c3cnc([C@@H]4CCCN4C(=O)[C@H](NC(=O)OC(C)(C)C)c4ccccc4)[nH]3)cc2)cc1)c1ccccc1 [Compound 30] | < 1 nM
COC(=O)N[C@@H](C(=O)N1CCC[C@H]1C(=O)NCc1ccc(-c2ccc3nc([C@@H]4CCCN4C(=O)[C@H](NC(=O)OC)c4ccccc4)[nH]c3c2)cc1)c1ccccc1 [Compound 111] | < 1 nM
CC(C)(C)OC(=O)N[C@@H](C(=O)N1CCC[C@H]1CNC(=O)c1ccc(-c2ccc(-c3cnc([C@@H]4CCCN4C(=O)[C@H](NC(=O)OC(C)(C)C)c4ccccc4)[nH]3)cc2)cc1)c1ccccc1 [Compound 49] | < 1 nM

SMILES | EC50
COC(=O)N[C@H](C(=O)N1CCC[C@H]1C(=O)Nc1ccc(-c2ccc(-c3cnc([C@@H]4CCCN4C(=O)[C@@H](NC(=O)OC)C(C)C)[nH]3)cn2)cc1)C(C)C [Compound 71] | 1 to 9.9 nM
[2H]C([2H])([2H])C([2H])(C([2H])([2H])[2H])C([2H])(NC(=O)OC)C(=O)N1CCC[C@H]1c1ncc(-c2ccc(-c3ccc(CNC(=O)[C@@H]4CCCN4C(=O)[C@@]([2H])(NC(=O)OC)C([2H])(C([2H])([2H])[2H])C([2H])([2H])[2H])cc3)cc2)[nH]1 (some centres unmarked) [Compound 82] | 1 to 9.9 nM
COC(=O)N[C@H](C(=O)N1CCC[C@H]1CNC(=O)c1ccc(-c2ccc(-c3cnc([C@@H]4CCCN4C(=O)[C@@H](NC(=O)OC)[C@@H](C)OC)[nH]3)cc2)cc1)[C@@H](C)OC [Compound 122] | < 1 nM
COC(=O)N[C@H](C(=O)N1CCC[C@H]1c1nc2c([nH]1)-c1ccc(-c3ccc(C(=O)NC[C@@H]4CCCN4C(=O)[C@H](NC(=O)OC)c4ccccc4)cc3)cc1CC2)C(C)C [Compound 85] | < 1 nM
CC(C)[C@@H](NC(=O)OC(C)(C)C)C(=O)N1CCC[C@H]1C(=O)Nc1ccc(-c2ccc(-c3cnc([C@@H]4COCCN4C(=O)[C@H](NC(=O)OC(C)(C)C)C(C)C)[nH]3)cc2)cc1 [Compound 10] | 10 to 999 nM
CC(C)[C@@H](NC(=O)OC(C)(C)C)C(=O)N1CCOC[C@H]1C(=O)Nc1ccc(-c2ccc(-c3cnc([C@@H]4COCCN4C(=O)[C@H](NC(=O)OC(C)(C)C)C(C)C)[nH]3)cc2)cc1 [Compound 18] | 10 to 999 nM
C[C@@H](NC(=O)C1CC1)C(=O)N1CCC[C@H]1C(=O)Nc1ccc(-c2ccc(-c3cnc([C@@H]4CCCN4C(=O)[C@@H](C)NC(=O)C4CC4)[nH]3)cc2)cc1 [Compound 28] | 1 to 9.9 nM
CC(C)[C@@H](NC(=O)C1CC1)C(=O)N1CCC[C@H]1c1ncc(-c2ccc(Oc3ccc(-c4cnc([C@@H]5CCCN5C(=O)[C@H](NC(=O)C5CC5)C(C)C)[nH]4)cc3)cc2)[nH]1 [Compound 53] | 1 to 9.9 nM
CC(C)[C@@H](NC(=O)C1CC1)C(=O)N1CCOC[C@H]1C(=O)Nc1ccc(-c2ccc(-c3cnc([C@@H]4CCCN4C(=O)[C@H](NC(=O)C4CC4)C(C)C)[nH]3)cc2)cc1 [Compound 23] | 1 to 9.9 nM
O=C(NCc1ccc(-c2ccc(-c3cnc([C@@H]4CCCN4C(=O)[C@H](NC(=O)N4CCOCC4)c4ccccc4)[nH]3)cc2)cc1)[C@@H]1CCCN1C(=O)[C@H](NC(=O)N1CCOCC1)c1ccccc1 [Compound 44] | 1 to 9.9 nM
C=CC[C@H](NC(=O)OC)C(=O)N1CCC[C@H]1C(=O)NCc1ccc(-c2ccc(-c3cnc([C@@H]4CCCN4C(=O)[C@H](CC=C)NC(=O)OC)[nH]3)cc2)cc1 [Compound 80] | 1 to 9.9 nM
[2H]C([2H])([2H])C([2H])(C([2H])([2H])[2H])C([2H])(NC(=O)OC)C(=O)N1CCC[C@H]1c1ncc(-c2ccc(-c3ccc(NC(=O)[C@@H]4CCCN4C(=O)[C@@]([2H])(NC(=O)OC)C([2H])(C([2H])([2H])[2H])C([2H])([2H])[2H])cc3)cc2)[nH]1 (some centres unmarked) [Compound 77] | < 1 nM
COC(=O)N[C@@H](C)C(=O)N1CCC[C@H]1C(=O)Nc1ccc(-c2ccc(-c3cnc([C@@H]4CCCN4C(=O)[C@H](C)NC(=O)OC)[nH]3)cc2)cc1 [Compound 108] | 10 to 999 nM
COC(=O)N[C@@H](C(=O)N1CCC[C@H]1c1ncc(-c2ccc(-c3ccc(C(=O)NC[C@@H]4CCCN4C(=O)[C@@H](c4ccccc4)N4CCOCC4)cc3)cc2)[nH]1)c1ccccc1 [Compound 63] | < 1 nM
CC(C)[C@@H](NC(=O)C1CC1)C(=O)N1CCC[C@H]1C(=O)Nc1ccc(-c2ccc(-c3cnc([C@@H]4COCCN4C(=O)[C@H](NC(=O)C4CC4)C(C)C)[nH]3)cc2)cc1 [Compound 20] | 1 to 9.9 nM
C[C@@H](NC(=O)OC(C)(C)C)C(=O)N1CCC[C@H]1C(=O)Nc1ccc(-c2ccc(-c3cnc([C@@H]4COCCN4C(=O)[C@@H](C)NC(=O)OC(C)(C)C)[nH]3)cc2)cc1 [Compound 9] | 10 to 999 nM
CC(C)(C)OC(=O)N[C@@H](C(=O)N1CCOC[C@H]1C(=O)Nc1ccc(-c2ccc(-c3cnc([C@@H]4COCCN4C(=O)[C@H](NC(=O)OC(C)(C)C)c4ccccc4)[nH]3)cc2)cc1)c1ccccc1 [Compound 16] | < 1 nM
COC(=O)N[C@H](C(=O)N1CCC[C@H]1CNC(=O)c1ccc(-c2ccc(-c3cnc([C@@H]4CCCN4C(=O)[C@@H](NC(=O)OC)C(C)C)[nH]3)cc2)cc1)C(C)C [Compound 99] | < 1 nM
COC(=O)N[C@@H](C(=O)N1CCC[C@H]1C(=O)Nc1ccc(-c2ccc3nc([C@@H]4CCCN4C(=O)[C@H](NC(=O)OC)c4ccccc4)[nH]c3c2)cc1)c1ccccc1 [Compound 74] | < 1 nM
COC(=O)N[C@H](C(=O)N1CCC[C@H]1C(=O)N[C@@H](C)c1ccc(-c2ccc(-c3cnc([C@@H]4CCCN4C(=O)[C@@H](NC(=O)OC)C4CCOCC4)[nH]3)cc2)cc1)C1CCOCC1 [Compound 101] | 1 to 9.9 nM
